Experimental findings from patent US9951021B2, “Compounds for inhibiting c-Myc/Max/DNA complex formation” (NATIONAL CANCER CENTER, priority 2016, dated 2018) are described below.

The test addresses T1, recombinant c-Myc/Max (Homo sapiens, UniProt P01106+P61244).
T1 construct: made in house
The experiment in a line: Electrophoretic mobility shift assay (EMSA): inhibitory activity on DNA binding of recombinant c-Myc/Max. To be noted: read-out: protein assay IC50. The protocol: 1) Preparation of Recombinant c-Myc and Max Proteins
Recombinant proteins were prepared as described in the following references: K. C. Jung et al., Fatty Acids, Inhibitors for the DNA Binding of c-Myc/Max Dimer, Suppress Proliferation and Induce Apoptosis of Differentiated HL-60 Human Leukemia Cell, Leukemia, 2006, 20(1), 122-7 or Kyung-Chae Jeong et al., Small-Molecule Inhibitors of c-Myc Transcriptional Factor Suppress Proliferation and Induce Apoptosis of Promyelocytic Leukemia Cell via Cell Cycle Arrest, Mol. BioSyst., 2010, 6, 1503-1509.
2) Electrophoretic Mobility Shift Assay (EMSA)
The inhibitory activity of each candidate compound on DNA binding of recombinant c-Myc/Max was measured using an electrophoretic mobility shift assay (EMSA). The ratio of protein-DNA complexes in each sample was evaluated by measuring band intensity. The oligonucleotides (E-box) corresponding to the consensus binding site of Myc/Max were dimerized through an annealing process. The protein mixture was incubated at room temperature for 5 minutes, and a DMSO solution containing each candidate compound was added thereto. The mixture was further incubated for 5 minutes, and the biotinylated DNA was added. To achieve a state of equilibrium, the final mixture was incubated at room temperature for 10 minutes. The protein-DNA complexes were separated from unbound free DNA by pre-electrophoresis using 8% polyacrylamide gel and 1×TBE buffer. After pre-electrophoresis, electrophoresis was performed at 120 V for 1 hour in 1×TBE buffer. Each band was visualized using HRP-conjugated streptavidin and an ECL solution, and band intensity was measured using image analysis software.
Background: A gel shift assay detects complexes by their altered migration in electrophoresis.

T1 sequence (P01106 whole entry): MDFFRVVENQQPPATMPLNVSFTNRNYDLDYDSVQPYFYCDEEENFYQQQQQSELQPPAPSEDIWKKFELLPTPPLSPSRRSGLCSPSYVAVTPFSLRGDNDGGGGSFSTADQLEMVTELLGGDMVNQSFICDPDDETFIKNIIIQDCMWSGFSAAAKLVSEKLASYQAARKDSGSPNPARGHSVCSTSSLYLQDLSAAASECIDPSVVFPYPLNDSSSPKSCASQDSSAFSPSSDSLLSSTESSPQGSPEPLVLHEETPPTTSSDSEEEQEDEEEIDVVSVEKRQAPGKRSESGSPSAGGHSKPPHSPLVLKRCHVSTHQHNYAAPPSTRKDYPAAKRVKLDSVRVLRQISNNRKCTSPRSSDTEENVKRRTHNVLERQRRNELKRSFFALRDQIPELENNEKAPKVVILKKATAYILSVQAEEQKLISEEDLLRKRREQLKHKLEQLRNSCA
T1 sequence (P61244 whole entry): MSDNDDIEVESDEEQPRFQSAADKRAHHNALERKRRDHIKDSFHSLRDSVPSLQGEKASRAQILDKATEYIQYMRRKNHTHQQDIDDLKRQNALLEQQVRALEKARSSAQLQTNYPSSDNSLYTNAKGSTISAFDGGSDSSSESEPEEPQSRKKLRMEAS

Consider `CSc1c(C(C)=O)c(=O)c2c(Cl)ccc(Br)c2n1C` [Compound 5, 3-acetyl-8-bromo-5-chloro-1-methyl-2-(methylthio)quinolin-4(1H)-one], for which the IC50 was less than 1000 nM. As for `CC(=O)c1c([S+]([O-])Cc2cccc(I)c2)[nH]c2c(Br)ccc(Cl)c2c1=O` (stereo not shown) [Compound 48, 3-acetyl-8-bromo-5-chloro-2-((3-iodobenzyl)sulfinyl)quinolin-4(1H)-one], the IC50 is less than 1000 nM. On to `CC(=O)c1c([S+](C)[O-])[nH]c2c(Cl)ccc(Cl)c2c1=O` (stereo not shown) [Compound 6, 3-acetyl-5,8-dichloro-2-(methylsulfinyl)quinolin-4(1H)-one], for which the IC50 is less than 1000 nM. Regarding `CC(=O)c1c([S+](C)[O-])n(C(C)=O)c2c(Br)ccc(Cl)c2c1=O` (stereo not shown) [Compound 19, 1,1′-(8-bromo-5-chloro-2-(methylsulfinyl)-4-oxoquinoline-1,3-(4H)-diyl)bis(ethan-1-one)], the IC50 was less than 1000 nM. `CC(=O)c1c(S)[nH]c2c(Br)ccc(Cl)c2c1=O` [Compound 62, 3-acetyl-8-bromo-5-chloro-2-mercaptoquinolin-4(1H)-one]: the IC50 was less than 1000 nM. For the compound `CC(=O)c1c(SCc2cccc(I)c2)[nH]c2c(Br)ccc(Cl)c2c1=O` [Compound 47, 3-acetyl-8-bromo-5-chloro-2-((3-iodobenzyl)thio)quinolin-4(1H)-one], the IC50 is less than 1000 nM. For `CSc1c(C(C)=O)c(=O)c2c(Cl)ccc(Br)c2n1S(=O)(=O)c1ccc([N+](=O)[O-])cc1` [Compound 38, 3-acetyl-8-bromo-5-chloro-2-(methylthio)-1-((4-nitrophenyl)sulfonyl)quinolin-4(1H)-one], the IC50 was less than 1000 nM. `CCS(=O)(=O)n1c([S+](C)[O-])c(C(C)=O)c(=O)c2c(Cl)ccc(Br)c21` (stereo not shown) [Compound 39, 3-acetyl-8-bromo-5-chloro-1-(ethylsulfonyl)-2-(methylsulfinyl)quinolin-4(1H)-one]: the IC50 was less than 1000 nM. In the case of `CC(=O)c1c(SCc2ccccc2)n(C(=O)c2ccc(Br)cc2)c2c(Br)ccc(Cl)c2c1=O` [Compound 23, 3-acetyl-2-(benzylthio)-8-bromo-1-(4-bromobenzoyl)-5-chloroquinolin-4(1H)-one] it was less than 1000 nM; in that of `CC(=O)c1c([S+]([O-])Cc2ccc(I)cc2)[nH]c2c(Cl)ccc(Cl)c2c1=O` (stereo not shown) [Compound 83, 3-acetyl-5,8-dichloro-2-((4-iodobenzyl)sulfinyl)quinolin-4(1H)-one], less than 1000 nM.

In the case of `CC(=O)c1c([S+]([O-])Cc2ccc(F)c(Cl)c2)[nH]c2c(Br)ccc(Cl)c2c1=O` (stereo not shown) [Compound 31, 3-acetyl-8-bromo-5-chloro-2-((3-chloro-4-fluorobenzyl)sulfinyl)quinolin-4(1H)-one], the IC50 is less than 1000 nM. As for `COc1cccc2[nH]c([S+]([O-])Cc3ccc(S(F)(F)(F)(F)F)cc3)c(C(C)=O)c(=O)c12` (stereo not shown) [Compound 93, 3-acetyl-5-methoxy-2-((4-(pentafluoro-λ6-sulfanyl)benzyl)sulfinyl)quinolin-4(1H)-one], the concentration for half-maximal inhibition (IC50) is less than 1000 nM. As to `CC(=O)c1c([S+]([O-])Cc2cc(C)on2)[nH]c2c(Br)ccc(Cl)c2c1=O` (stereo not shown) [Compound 51, 3-acetyl-8-bromo-5-chloro-2-(((5-methylisoxazol-3-yl)methyl)sulfinyl)quinolin-4(1H)-one], the IC50 is less than 1000 nM. As to `CC(=O)c1c([S+](C)[O-])n(Cc2ccc(F)c(Cl)c2)c2c(Br)ccc(Cl)c2c1=O` (stereo not shown) [Compound 22, 3-acetyl-8-bromo-5-chloro-1-(3-chloro-4-fluorobenzyl)-2-(methylsulfinyl)quinolin-4(1H)-one], the IC50 is less than 1000 nM.

For `CC(=O)c1c([S+]([O-])Cc2nonc2C)[nH]c2c(Br)ccc(Cl)c2c1=O` (stereo not shown) [Compound 106, 3-acetyl-8-bromo-5-chloro-2-(((4-methyl-1,2,5-oxadiazol-3-yl)methyl)sulfinyl)quinolin-4(1H)-one], the 50% inhibitory concentration (IC50) is less than 1000 nM. In the case of `CC(=O)c1c([S+]([O-])Cc2ccc(F)cc2F)[nH]c2c(Br)ccc(Cl)c2c1=O` (stereo not shown) [Compound 29, 3-acetyl-8-bromo-5-chloro-2-((2,4-difluorobenzyl)sulfinyl)quinolin-4(1H)-one] it was less than 1000 nM; in that of `CC(=O)c1c([S+]([O-])Cc2ccc(C(C)(C)C)cc2)[nH]c2c(Br)ccc(Cl)c2c1=O` (stereo not shown) [Compound 60, 3-acetyl-8-bromo-2-((4-(tert-butyl)benzyl)sulfinyl)-5-chloroquinolin-4(1H)-one], less than 1000 nM; in that of `COC(=O)c1ccc(C[S+]([O-])c2[nH]c3c(Cl)ccc(Cl)c3c(=O)c2C(C)=O)o1` (stereo not shown) [Compound 89, methyl 5-(((3-acetyl-5,8-dichloro-4-oxo-1,4-dihydroquinolin-2-yl)sulfinyl)methyl)furan-2-carboxylate], less than 1000 nM. As to `O=C(c1c([S+]([O-])Cc2ccc(SC(F)(F)F)cc2)[nH]c2c(Br)ccc(Cl)c2c1=O)C1CC1` (stereo not shown) [Compound 101, 8-bromo-5-chloro-3-(cyclopropanecarbonyl)-2-((4-((trifluoromethyl)thio)benzyl)sulfinyl)quinolin-4(1H)-one], the IC50 was less than 1000 nM.

`CC(=O)c1c(SCc2ccccc2)nc2c(Br)ccc(Cl)c2c1O` [Compound 52, 1-(2-(benzylthio)-8-bromo-5-chloro-4-hydroxyquinolin-3-yl)ethan-1-one]: the IC50 was less than 1000 nM. The same measure for `Cc1cc(C[S+]([O-])c2[nH]c3c(Cl)ccc(Cl)c3c(=O)c2C(=O)C2CC2)no1` (stereo not shown) [Compound 97, 5,8-dichloro-3-(cyclopropanecarbonyl)-2-(((5-methylisoxazol-3-yl)methyl)sulfinyl)quinolin-4(1H)-one]: less than 1000 nM.

On to `Cc1cc(C[S+]([O-])c2[nH]c3c(Cl)ccc(Cl)c3c(=O)c2C(=O)C(C)C)no1` (stereo not shown) [Compound 86, 5,8-dichloro-3-isobutyryl-2-(((5-methylisoxazol-3-yl)methyl)sulfinyl)quinolin-4(1H)-one], for which the half-inhibitory concentration (IC50) was less than 1000 nM. With `CC(=O)c1c([S+]([O-])Cc2ccc(OC(F)(F)F)cc2)[nH]c2c(Br)ccc(Cl)c2c1=O` (stereo not shown) [Compound 71, 3-acetyl-8-bromo-5-chloro-2-((4-(trifluoromethoxy)benzyl)sulfinyl)quinolin-4(1H)-one], the IC50 is less than 1000 nM.

Consider `CC(=O)c1c([S+]([O-])Cc2ccc(C#N)s2)[nH]c2c(Br)ccc(Cl)c2c1=O` (stereo not shown) [Compound 98, 5-(((3-acetyl-8-bromo-5-chloro-4-oxo-1,4-dihydroquinolin-2-yl)sulfinyl)methyl)thiophene-2-carbonitrile], for which the IC50 was less than 1000 nM.

For the compound `CC(=O)c1c([S+]([O-])Cc2ccc(Cl)nc2)[nH]c2c(Br)ccc(Cl)c2c1=O` (stereo not shown) [Compound 104, 3-acetyl-8-bromo-5-chloro-2-(((6-chloropyridin-3-yl)methyl)sulfinyl)quinolin-4(1H)-one], the IC50 is less than 1000 nM. In the case of `CC(=O)c1c([S+]([O-])Cc2c(F)cccc2Cl)[nH]c2c(Br)ccc(Cl)c2c1=O` (stereo not shown) [Compound 74, 3-acetyl-8-bromo-5-chloro-2-((2-chloro-6-fluorobenzyl)sulfinyl)quinolin-4(1H)-one] it was less than 1000 nM; in that of `COc1ccccc1Sc1[nH]c2c(Br)ccc(Cl)c2c(=O)c1C(C)=O` [Compound 14, 3-acetyl-8-bromo-5-chloro-2-((2-methoxyphenyl)thio)quinolin-4(1H)-one], less than 1000 nM; in that of `CC(=O)c1c(SCc2cc(F)cc(F)c2)[nH]c2c(Br)ccc(Cl)c2c1=O` [Compound 45, 3-acetyl-8-bromo-5-chloro-2-((3,5-difluorobenzyl)thio)quinolin-4(1H)-one], less than 1000 nM. For the compound `CSc1c(C(C)=O)c(=O)c2c(Cl)ccc(Br)c2n1S(C)(=O)=O` [Compound 35, 3-acetyl-8-bromo-5-chloro-1-(methylsulfonyl)-2-(methylthio)quinolin-4(1H)-one], the IC50 is less than 1000 nM. Take `CC(C)C(=O)c1c([S+]([O-])Cc2ccc(SC(F)(F)F)cc2)[nH]c2c(F)ccc(F)c2c1=O` (stereo not shown) [Compound 85, 5,8-difluoro-3-isobutyryl-2-((4-((trifluoromethyl)thio)benzyl)sulfinyl)quinolin-4(1H)-one]: the IC50 is less than 1000 nM.

Take `CC(=O)c1c([S+]([O-])Cc2ccc(SC(F)(F)F)cc2)[nH]c2c(Br)ccc(Cl)c2c1=O` (stereo not shown) [Compound 56, 3-acetyl-8-bromo-5-chloro-2-((4-((trifluoromethyl)thio)benzyl)sulfinyl)quinolin-4(1H)-one]: the IC50 was less than 1000 nM. `CC(=O)c1c([S+]([O-])Cc2ccc(SC(F)(F)F)cc2)[nH]c2c(Cl)ccc(Cl)c2c1=O` (stereo not shown) [Compound 79, 3-acetyl-5,8-dichloro-2-((4-((trifluoromethyl)thio)benzyl)sulfinyl)quinolin-4(1H)-one]: the IC50 is less than 1000 nM. As for `CC(=O)c1c([S+]([O-])C(C)C)[nH]c2c(Br)ccc(Cl)c2c1=O` (stereo not shown) [Compound 25, 3-acetyl-8-bromo-5-chloro-2-(isopropylsulfinyl)quinolin-4(1H)-one], the IC50 was less than 1000 nM. The same measure for `COc1cccc2[nH]c(SCc3ccc(S(F)(F)(F)(F)F)cc3)c(C(C)=O)c(=O)c12` [Compound 92, 3-acetyl-5-methoxy-2-((4-(pentafluoro-λ6-sulfanyl)benzyl)thio)quinolin-4(1H)-one]: less than 1000 nM.

Broadly, the IC50 is the midpoint of a concentration-inhibition curve.
